Source: patent US10611789B2, “Crystalline form A of rebaudioside D, and preparation method and application therefor” (ZHUCHENG HAOTIAN PHARM CO., LTD, priority 2015, dated 2020)
In brackets after ≈: the same amount, converted by molar mass.

What was measured:
Assay type in all cases: physicochemical
[1] = HPLC chemical stability on storage; settings: after six months of storage (25° C., relative humidity 60%)
Experimental: HPLC analysis: a 1260 infinity liquid chromatograph from American Agilent Technologies was used for determination. Preparation method for the sample solution: 25-50 mg of the Rebaudioside D sample was accurately weighed, and placed in a 25 ml of volumetric flask, and then a solution of water-acetonitrile (7:3, v/v) was added for dissolution and the volume was set to the scale. The fomulation method for sodium phosphate buffer (specification: 10 mmol/L, pH: 2.6): 2.76 g of sodium dihydrogen phosphate was dissolved in 2 L of water, phosphoric acid was added and the pH was adjusted to 2.6. Chromatographic column: Phenomenex's Luna 5μ C18 (2) 100 A column. Injection volume: 5 μl. Flow rate: 1.0 mL/min. Column temperature: 40° C. Detector: 210 nm of UV detection. Mobile phase: acetonitrile and sodium phosphate buffer (specification: 10 mmol/L, pH: 2.6) at a ratio of 32:68.

[2] = dynamic vapor sorption (DVS) analysis; settings: 25° C.
Experimental: DVS analysis: a DVS Intrinsic Dynamic Moisture Adsorption Device of UK SMS Instrument Company was used for detection. The measuring temperature: 25° C.; the relative humidity: 0-95%.

[3] = XRPD crystal form stability on storage
Experimental: XRPD analysis: a Bruker D8 advance diffractometer from German Brook Instruments Co. LTD was used for detection at room temperature, using Cu-Kα ray (λ=1.5418 Å) with 2θ angle scanning from 3° to 40° at a scanning speed of 0.2°/second.
The crystal form A of Rebaudioside D prepared in the above examples was subjected to XRPD analysis under the conditions of 25° C. and RH≤30%. The analysis results are shown in FIG. 6, and it can be seen from FIG. 6 that the crystal form thereof is unchanged and has a good stability.
The crystal form A of Rebaudioside D prepared in the above examples was stored for 6 months under the conditions of 25° C. and RH≤60%. The analysis results are shown in FIG. 7, and it can be seen from FIG. 7 that the crystal form thereof is unchanged and has a good stability.

[4] = water solubility of crystal form A

For C=C1C[C@@]23CCC4[C@@](C)(CCC[C@@]4(C)C(=O)O[C@@H]4OC(CO)[C@@H](O)C(O)C4OC4OC(CO)[C@@H](O)C(O)C4O)C2CC[C@]1(OC1OC(CO)C(O)C(OC2OC(CO)C(O)C(O)C2O)C1OC1OC(CO)C(O)C(O)C1O)C3 (stereo partly drawn) [crystal form A of Rebaudioside D, Rebaudioside D], the “variation of HPLC purity compared with the raw material” value [1] was “less than 0.5%”, the “mass percentage of absorbed moisture” value ([2]; within a relative humidity of 0-40%) was 0-3.4% and the “mass percentage of absorbed moisture” value ([2]; within a relative humidity of 40-100%) was 3.4-7.1%. For the same molecule, the “crystal form by XRPD” value ([3]; 25° C. and RH≤30%) was “unchanged”, the “crystal form by XRPD after storage” value ([3]; stored for 6 months, 25° C. and RH≤60%) was “unchanged” and the solubility [4] was about 600 µg/mL (≈ 531 µM).
